Our source for the Activity values is ChEMBL document CHEMBL4699599, “Discovery of a Beetroot Protease Inhibitor to Identify and Classify Plant-Derived Cystine Knot Peptides” (J Nat Prod, 2020).

The target of this test is T1, Serine protease 1 (Bos taurus) (UniProt P00760).
T1 sequence (whole entry): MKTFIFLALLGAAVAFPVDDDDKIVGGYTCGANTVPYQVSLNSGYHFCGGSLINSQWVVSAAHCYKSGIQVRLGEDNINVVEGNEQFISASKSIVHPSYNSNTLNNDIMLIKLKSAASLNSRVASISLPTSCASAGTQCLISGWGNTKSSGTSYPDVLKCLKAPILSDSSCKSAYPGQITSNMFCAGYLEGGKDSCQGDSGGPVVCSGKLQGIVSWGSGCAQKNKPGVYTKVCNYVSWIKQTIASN
Description: Inhibition of bovine beta-trypsin using BAPNA as substrate assessed as […].

Positions of bridges follow the written chain, without caps; N, C: chain ends. Residues, ends and D or L forms follow the SMILES beside them.

For the compound `CC[C@H](C)[C@@H]1NC(=O)[C@H](CCCNC(=N)N)NC(=O)[C@H](CC(C)C)NC(=O)[C@H](CCCNC(=N)N)NC(=O)[C@@H]2CCCN2C(=O)[C@@H]2CCCN2C(=O)[C@H](Cc2cnc[nH]2)NC(=O)[C@@H]2CCCN2C(=O)[C@H](C(C)C)NC(=O)[C@@H]2CSSC[C@@H]3NC(=O)[C@H]([C@@H](C)CC)NC(=O)[C@H](CCC(N)=O)NC(=O)[C@H](CC(=O)O)NC(=O)[C@H]([C@@H](C)O)NC(=O)[C@H](CCCCN)NC(=O)[C@H](C)NC(=O)[C@@H](NC(=O)[C@H](CCC(=O)O)NC(=O)[C@H](CCC(=O)O)NC(=O)[C@H](CC(=O)O)NC(=O)[C@@H](N)CCC(=O)O)CSSC[C@H](NC(=O)[C@H](CSSC[C@@H](C(=O)N[C@@H](C)C(=O)O)NC(=O)[C@H](C(C)C)NC(=O)[C@H](Cc4ccccc4)NC1=O)NC(=O)[C@H](Cc1ccc(O)cc1)NC(=O)[C@H](CC(N)=O)NC(=O)[C@@H]1CCCN1C(=O)[C@H](C)NC(=O)[C@H](CC(N)=O)NC(=O)[C@@H]1CCCN1C(=O)[C@@H]1CCCN1C3=O)C(=O)N[C@@H](CO)C(=O)NCC(=O)N[C@@H](CO)C(=O)N2` (H-EDEECAKTDQICPPNAPNYCCSGSCVPHPPRLRIFVCA-OH; disulfide 5-21, 12-25, 20-37), the Activity is 536 nM. As for `CC[C@H](C)[C@@H]1NC(=O)[C@H](C)NC(=O)CNC(=O)[C@H](CO)NC(=O)[C@@H]2CCCN2C(=O)[C@H](CO)NC(=O)[C@@H](NC(=O)[C@@H](N)CCCCN)CSSC[C@@H]2NC(=O)[C@@H]3CSSC[C@@H](C(=O)N[C@@H](CCC(N)=O)C(=O)O)NC(=O)[C@H](C(C)C)NC(=O)[C@H](Cc4ccccc4)NC(=O)[C@H]([C@@H](C)CC)NC(=O)[C@H](CCCNC(=N)N)NC(=O)[C@H](CC(C)C)NC(=O)[C@H]([C@@H](C)CC)NC(=O)[C@@H]4CCCN4C(=O)[C@H](Cc4cnc[nH]4)NC(=O)[C@@H]4CCCN4C(=O)[C@H](C(C)C)NC(=O)[C@H](CSSC[C@H](NC1=O)C(=O)N[C@@H](CO)C(=O)NCC(=O)N[C@@H](Cc1ccccc1)C(=O)NCC(=O)N1CCC[C@H]1C(=O)N1CCC[C@H]1C(=O)N[C@@H](CCC(=O)O)C(=O)N[C@@H](CCC(N)=O)C(=O)N3)NC(=O)[C@H](C)NC(=O)CNC(=O)[C@H](CO)NC2=O` (H-KCSPSGAICSGFGPPEQCCSGACVPHPILRIFVCQ-OH; disulfide 2-19, 9-23, 18-34), the figure is 185 nM.
